Experimental data taken from patent publication US6914072B2, “Cannabinoid drugs” (Indevus Pharmaceuticals, Inc., priority 2000, dated 2005).

Legend:
[1] = Stereospecificity of the proliferation effect (D-isomer vs L-isomer); format: cell-based; conditions: 25 μM dose, p<0.001, FIG. 2
Excerpt: (§1) Cell proliferation assays. […] 5:69-84, 1995.
To assess whether ajulemic acid's effect was receptor-mediated, a preparation 95% enriched in the D-isomer of ajulemic acid was used to examine the stereospecificity of the effect observed above.

HS578T = assay: 48 hour MTT assay, HS578T (breast); format: cell-based, human; conditions: 25 μM
Procedure: as §1
(§2) The proliferation of a number of human cell lines derived from a variety of cancer types (brain, breast, bladder, lung, and prostate) was tested for sensitivity to 25 μM of each agent for 48 hours.

Calu6 = assay: 48 hour MTT assay, Calu6 (lung); format: cell-based, human; conditions: 25 μM
Procedure: as §1, §2

Du145 = assay: 48 hour MTT assay, Du145 (prostate); format: cell-based, human; conditions: 25 μM
Procedure: as §1, §2

U373 = assay: 48 hour MTT assay, U373 (brain); format: cell-based, human; conditions: 25 μM
Procedure: as §1, §2

U118 = assay: 48 hour MTT assay, U118 (brain); format: cell-based, human; conditions: 25 μM
Procedure: as §1, §2

A172 = assay: 48 hour MTT assay, A172 (brain); format: cell-based, human; conditions: 25 μM
Procedure: as §1, §2

J82 = assay: 48 hour MTT assay, J82 (bladder); format: cell-based, human; conditions: 25 μM
Procedure: as §1, §2

U87 = assay: 48 hour MTT assay, U87 (brain); format: cell-based, human; conditions: 25 μM
Procedure: as §1, §2

PC3 = assay: 48 hour MTT assay, PC3 (prostate); format: cell-based, human; conditions: 25 μM
Procedure: as §1, §2

[2] = system: human cell lines derived from a variety of cancer types (brain, breast, bladder, lung, and prostate); assay: 48 hour MTT assay, panel of ten human cancer cell lines (mean); format: cell-based; conditions: 25 μM; for Inhibition level (mean±SD) over the human cancer cell lines: 48 hours, mean±SD of ten lines
Procedure: as §1, §2

HT1376 = assay: 48 hour MTT assay, HT1376 (bladder); format: cell-based, human; conditions: 25 μM
Procedure: as §1, §2

C6 cells [3] = assay: Cell morphology (phase and electron microscopy), C6 cells; format: cell-based
Procedure: (§3) In order to investigate this effect further, the effect of ajulemic acid on cell cycle kinetics was assessed. C6 glioma cells were incubated for 24 hours in media containing 0.5% serum to synchronize them in G1/G0. The cells were then exposed to media containing 10% serum either with or without 25 μM ajulemic acid for two days.
Third, another distinctive feature of ajulemic acid's antitumor effect was the appearance of retractile bodies that could be easily visualized with phase microscopy. Both the number of cells that had refractile bodies as well as the number of refractile bodies/cell increased over time. After 48 hours, 83% of ajulemic acid-treated C6 cells had one or more refractile bodies compared to 27% to THC-treated cells (p<0.001, Chi-square analysis). The mean number of refractile bodies per cell was also much higher for ajulemic acid-treated cells compared to THC-treated cells (1.78±1.6 vs. 0.22±0.5 per cell, p<0.001, t-test).
To further explore the nature of the cell enlargement and refractile bodies, cells were examined under electron microscopy. […] In fact, these cells appeared metabolically active. […] Moreover, ajulemic acid-treated cells were enlarged and contained large lipid droplets, the identity of which was confirmed by […].

[4] = system: normal fibroblast cell line WI38; assay: MTT cell proliferation assay, WI38 cells; conditions: 25 μM, two days, three different experiments
C6 cells [5] = assay: Viability by trypan blue exclusion; format: cell-based; conditions: ajulemic acid-treated cells
C6 glioma cells [6] = assay: MTT cell proliferation assay, C6 glioma cells; format: cell-based
Procedure: as §1, §2

C6 cells [7] = assay: Lipid incorporation assay (14C-arachidonic acid); format: cell-based; conditions: 25 μM, 48 hours
PKC activity in C6 cells = assay: Protein kinase C (PKC) assay; format: cell-based; conditions: 25 μM
Procedure: Protein kiniase C (PKC) assay. Cells were transferred into MEM media (0.5% serum) and cultured overnight. The next day, cells were treated with either DMSO or 25 μM ajulemic acid for the specified incubation time, after which the plates were trypsinized. 5×10^6 trypsinized cells were assayed for PKC activity using a kit (Calbiochem, cat. no. 53984).
Because diacyl glycerol (DAG) is an important signal transducer of protein kinase C, the effect of ajulemic acid treatment on the PKC activity in C6 cells was examined. […] At least two alternative explanations for this observation exist: (1) the PKC isozymes that were stimulated were those with slow growth, such as PKCδ; and (2) the increased DAG was modulating some other downstream mediator, such as β-chimaerin, to a greater extent such that the balance is towards anti-proliferation.

C6 glioma cells [8] = assay: Flow cytometry/cell cycle analysis; format: cell-based; conditions: 25 μM, two days in 10% serum after synchronization; control 4.4 ± 0.3
Procedure: Flow cytometry/cell cycle analysis. For flow cytometry, cells were grown in low serum (0.5%) for two days to synchronize cells in G0/G1, after which they were placed in high serum (10%) for two days. The cells were then labeled with propidium iodide and fixed in 4% paraformaldehyde. Cells were examined using a MoFlo Facs sorter for DNA content.
as §3

[9] = system: human glioma cell line U87; assay: In vivo subcutaneous U87 nude mouse tumor model; parameters: species or system male nu/nu BALBc mice; conditions: 0.1 mg/kg thrice weekly, FIG. 4
Procedure: In vivo subcutaneous model. 10^6 U87 cells were injected into the right […] of male nu/nu BALBc mice (Charles River). Two days after inoculation, the mice received either 0.1 mg/kg ajulemic acid in 0.05 ml of safflower oil, or 0.05 ml safflower oil by oral administration. Thereafter, identical dosings were performed on each Monday, Wednesday, and Friday. When visible tumors appeared, the size of the tumors were estimated by averaging the values of two roughly perpendicular diameters measurements. Visible tumors were measured on the days of drug administration.
Whether ajulemic acid has in vivo antitumor activity was determined using a nude mouse tumor model. The growth of the human glioma cell line U87 injected subcutaneously in nude mice was assessed with and without ajulemic acid administration. For these experiments, ajulemic acid treatment was initiated two days after inoculation of 10^6 tumor cells in the mice. […] At day 25 post-inoculation, 5 of 5 control mice had tumors with a mean diameter of 16.3±3.2 mm, while the mean diameter in the treated group was 3.8±8.5 mm (n=5, p-0.015, t-test).

C6 glioma cells [10] = assay: Co-incubation of C6 glioma cells with a CB1 antagonist; format: cell-based; conditions: 3.2 μM of a specific CB1 antagonist
Excerpt: as §1
First, the compound's inhibition of cell proliferation was not reversible with a CB1 antagonist.

WI38 cells = assay: Refractile bodies by phase microscopy, WI38 cells; format: cell-based, rat; conditions: same length of time and dosage (48 hours)

SMILES | Percent inhibition of human cancer cell line growth in 48 hour MTT assay (HS578T) [%] | Percent inhibition of human cancer cell line growth in 48 hour MTT assay (Calu6) [%] | Percent inhibition of human cancer cell line growth in 48 hour MTT assay (Du145) [%] | Percent inhibition of human cancer cell line growth in 48 hour MTT assay (U373) [%] | Percent inhibition of human cancer cell line growth in 48 hour MTT assay (U118) [%] | Percent inhibition of human cancer cell line growth in 48 hour MTT assay (A172) [%] | Percent inhibition of human cancer cell line growth in 48 hour MTT assay (J82) [%] | Percent inhibition of human cancer cell line growth in 48 hour MTT assay (U87) [%] | Percent inhibition of human cancer cell line growth in 48 hour MTT assay (PC3) [%] | Inhibition level (mean±SD) over the human cancer cell lines [2] [%] | Percent inhibition of human cancer cell line growth in 48 hour MTT assay (HT1376) [%] | other results
CCCCCCC(C)(C)c1cc(O)c2c(c1)OC(C)(C)[C@@H]1CC=C(C(=O)O)C[C@@H]21 (single isomer, unassigned) [D-isomer of ajulemic acid] |  |  |  |  |  |  |  |  |  |  |  | Potency of D-isomer compared to L-isomer of ajulemic acid [1]: marked decrease in the potency
CCCCCc1cc(O)c2c(c1)OC(C)(C)[C@@H]1CC=C(C(=O)O)C[C@@H]21 [THC-11-oic acid, reference compound] | 2 ± 1 | 19 ± 5 | 7 ± 3 | 0 | 14 ± 3 | 61 ± 2 | 3 ± 1 | 5 ± 1 | 1 ± 1 | 13.1±18.5 | 21 ± 12 | Refractile bodies (in words), C6 glioma cells (C6 cells [3]; 25 μM, 48 hours): no retractile bodies were noted
CCCCCCC(C)(C)c1cc(O)c2c(c1)OC(C)(C)[C@@H]1CC=C(C(=O)O)C[C@@H]21 [ajulemic acid, 1′,1′-dimethylheptyl-Δ^8-THC11-oic acid] | 60 ± 2 | 69 ± 3 | 74 ± 2 | 34 ± 1 | 60 ± 2 | 76 ± 1 | 57 ± 3 | 54 ± 2 | 69 ± 2 | 61.3 ±12.1 | 60 ± 2 | Inhibition of WI38 cell proliferation [4]: 44%; Viability rate by trypan blue exclusion (C6 cells [5]): > 95%; Inhibition of C6 cell proliferation (C6 glioma cells [6]; 25 μM, two days, three different experiments): 65%; IC50 (C6 glioma cells [6]; C6 glioma cells, FIG. 1, read-out: IC50, inhibition of C6 glioma cells (MTT assay)): 55 µM; Content of tri- and di-glyceride relative to controls (C6 cells [7]): over three-fold greater than in controls; Neutral lipids (14C-arachidonic acid incorporation) versus basal levels (C6 cells [7]; p<0.05 Dunnett's test, FIG. 3): significant increase above basal levels; Onset of PKC activity increase (PKC activity in C6 cells): increased within five minutes; PKC activity relative to control (PKC activity in C6 cells; for one hour): approximately two-fold above that of control; S (mean % ± SD) (C6 glioma cells [8]): 13.0%; Tumor appearance and size (in words) [9]: A delay in both the appearance and size of tumors; Change of effect on co-incubation with CB1 antagonist (in words) (C6 glioma cells [10]): slight potentiation; Effectiveness compared to THC in the ten lines ([2]; p<0.05, in six of the ten lines tested): significantly more effective; Appearance of treated cells under electron microscopy (C6 cells [3]): neither apoptotic nor necrotic; Refractile bodies (in words), WI38 cells (WI38 cells): no retractile bodies were noted
CCCCCc1cc(O)c2c(c1)OC(C)(C)[C@@H]1CCC(C)=C[C@@H]21 [Δ^9-THC, tetrahydrocannabinol, reference compound] |  |  |  |  |  |  |  |  |  |  |  | Decrease in potency on co-incubation with CB1 antagonist (C6 glioma cells [10]): 150%
